# Experimental data taken from patent publication US8901337B2, “Metal complexes having dual histone deacetylase inhibitory and DNA-binding activity” (Royal College of Surgeons in Ireland, priority 2009, dated 2014).
# Where two headings read alike, the source gives them in different places.
# Columns and labels:
# [1] = system: DNA in SW480 cells (colon cancer); experiment: Pt binding to DNA in cultured cells (ICP-MS), SW480; assay type: cell-based; conditions: 43 μM of Pt complexes, 2 hours of cell treatment
# Experimental: (§1) Pt DNA binding of Pt complexes was measured in SW480 cells (colon cancer) and CH1 cells (lymphoma) or alternatively A2780 P and A2780 cisR cells (sensitive and resistant to cisplatin respectively). The cells were seeded in 60 mm tissue culture dishes with 10 ml of their respective medium. After overnight incubation the medium was removed and replaced with 10 ml of the respective medium containing a platinum complex giving a final concentration of 43 or 40 μM depending on the experiment. The cells were incubated with a given Pt complex for either 2 or 4 h depending on the experiment. The cells were trypsinised and centrifuged. The supernantant was removed and the cells washed twice with 1×PBS and centrifuged. The pellet was re-suspended in DNA buffer to which Proteinase K (20 mg/mL) and 10% SDS were added. After a gentle shake and incubation at 45° C. for two hours, RNAse (100 mg/mL) was added and the cells were incubated at 37° C. overnight. The volume of supernatant was noted and an equal volume of phenol was added.
# The resulting mixture was shook for 10 min, then centrifuged for 10 min at 10° C. The supernatant was transferred into a new centrifuge tube (15 ml) and the volume was noted. To this was added an equal volume of phenol and chloroform/isoamylalcohol (24:1). The resulting mixture was shook for 10 min, then centrifuged for 10 min at 10° C. (3000 RPM). The supernatant was transferred into a new centrifuge tube (15 mL) and the volume was noted. To this was added an equal volume of chloroform. The resulting mixture was shook for 10 min, then centrifuged for 10 min at 10° C. The supernatant was transferred into a new centrifuge tube (15 mL) and the volume was noted. To this was added a volume that is 1/10 of the supernatant of 3 M sodium acetate (Ph 5.2) and three times the volume of cold 100% isopropanol (from freezer). The solution was shook gently until the DNA is precipitated. […] The absorbance of the DNA by was measured by UV spectrophotometry at 260 nm and 280 nm and the concentration of DNA calculated. Platinum bound to DNA was determined by ICP-MS.
# [2] = system: ovarian cancer cell line A2780 P; experiment: MTS in vitro cytotoxicity, A2780 P; assay type: cell-based, human
# Experimental: (§2) Cells were cultured in the appropriate media. […] In order to retain resistance 1 μM cisplatin was added to the media of the A2780 cisR cells every third passage. A2780 cisR cells are resistant to cisplatin through a combination of decreased uptake, enhanced DNA repair/tolerance, and elevated reduced glutathione levels
# (§3) All cells were kept in a humidified atmosphere with 5% CO2 at 37° C.; cells from confluent monolayers were removed from flasks by trypsin/EDTA solution and their viability determined by the trypan blue exclusion test.
# (§4) Cell growth was determined by the [3-(4,5-dimethylthiazol-2-yl)-5-(3-carboxymethoxyphenyl)-2-(4-sulfophenyl)-2H-tetrazolium, inner salt, (MTS test, Promega, Southampton, UK), a colorimetric assay based on the ability of the viable cells to reduce a soluble yellow tetrazolium salt to blue formazan. 10,000 ovarian cancer cells or 3,000 fibroblast cells for example were seeded per well onto 96-well plates in 100 μl of the appropriate culture medium. 24 hr after sowing the cells, the media was removed and the cells were treated by adding 100 μl of the compound media solutions at the appropriate concentrations. cis-[Pt(NH3)2(malSAHA−2H)], cisplatin and cis-[Pt(NH3)2(mal)] were prepared freshly in cell culture media. […] The maximum percentage of dmso present in any well was less than 0.1% (v/v). cis-[Pt(NH3)2(malBel—2H)], belinostat and malbelinostat were freshly prepared in dimethyl formamide (DMF) and diluted in culture media prior to the MTS assay. The maximum percentage of DMF present in any well was 0.5% (v/v). A range of concentrations between 1 μM and 100 μM was used.
# (§5) After 72 hr of treatment, 20 μl of the MTS reagent was added to each well and the plates incubated for 2 hr at 37° C. […] The percentages of surviving cells relative to untreated controls were determined.
# A549 (lung cancer cells) = experiment: Cellular uptake of Pt (FAAS), A549; assay type: cell-based; conditions: 10 μM, 72 hours treatment
# Experimental: (§6) Cellular uptake of Pt compounds was measured in SKBR, SW480, A549, A2780P and CH1 cells. The cells were seeded in 60 mm tissue culture dishes with 10 mL of their respective medium and after overnight incubation, the cells were treated with the Pt complexes for 72 h at 10 μM concentration. The cell monolayers at the end of the incubation with the Pt complexes were washed (twice) with ice-cold phosphate buffered saline (PBS), trypsinized and harvested into cold (4° C.) PBS. Cell suspensions were centrifuged and the pellets were stored in PBS at −80° C. until assayed. Afterward, the pellets were digested by high pressure microwave mineralization and Pt content was determined by flameless atomic absorption spectrophotometry (FAAS). The results of cellular Pt uptake were corrected for adsorption effects. All experiments were made in triplicate.^17
# [3] = system: lung cancer cell line (A549); experiment: MTS in vitro cytotoxicity, A549; assay type: cell-based; conditions: 72 hours, Table 1, read-out: IC50 values against A549
# Experimental: as §3, §4, §5
# cell line (CH1) = experiment: MTS in vitro cytotoxicity, CH1; assay type: cell-based; conditions: 72 hours, Table 1, read-out: IC50 values against CH1
# Experimental: as §3, §4, §5
# [4] = system: DNA in CH1 cells (lymphoma); experiment: Pt binding to DNA in cultured cells (ICP-MS), CH1; assay type: cell-based; conditions: 43 μM of Pt complexes, 2 hours of cell treatment
# Experimental: as §1
# The resulting mixture was shook for 10 min, then centrifuged for 10 min at 10° C. The supernatant was transferred into a new centrifuge tube (15 ml) and the volume was noted. […] The absorbance of the DNA by was measured by UV spectrophotometry at 260 nm and 280 nm and the concentration of DNA calculated. Platinum bound to DNA was determined by ICP-MS.
# [5] = system: breast cancer cell line (SKBR); experiment: MTS in vitro cytotoxicity, SKBR; assay type: cell-based; conditions: 72 hours, Table 1, read-out: IC50 values against SKBR
# Experimental: as §3, §4, §5
# [6] = system: liver cell lines (Hep-G2); experiment: MTS in vitro cytotoxicity, Hep-G2; assay type: cell-based; conditions: 72 hours, Table 1, read-out: IC50 values against Hep-G2
# Experimental: as §3, §4, §5
# [7] = system: colon cancer cell line (SW480); experiment: MTS in vitro cytotoxicity, SW480; assay type: cell-based; conditions: 72 hours, Table 1, read-out: IC50 values against SW480
# Experimental: as §3, §4, §5
# [8] = system: SW480 (colon cancer cells); experiment: Cellular uptake of Pt (FAAS), SW480; assay type: cell-based; conditions: 10 μM, 72 hours treatment
# Experimental: as §6
# [9] = system: A2780 P (ovarian cancer cells); experiment: Cellular uptake of Pt (FAAS), A2780 P; assay type: cell-based, human; conditions: 10 μM, 72 hours treatment
# Experimental: as §6, with “The cells were seeded in 60 mm tissue culture dishes with 10 mL of their respective medium and after overnight incubation, the cells were treated with the Pt complexes for 72 h at 10 μM concentration.” left out
# CH1 (cancer cells) = experiment: Cellular uptake of Pt (FAAS), CH1; assay type: cell-based; conditions: 10 μM, 72 hours treatment
# Experimental: as §6
# [10] = system: SKBR (breast cancer cells); experiment: Cellular uptake of Pt (FAAS), SKBR; assay type: cell-based; conditions: 10 μM, 72 hours treatment
# Experimental: as §6
# [11] = system: non-tumorigenic human dermal fibroblast cell line (NHDF); experiment: MTS in vitro cytotoxicity, NHDF; assay type: cell-based
# Experimental: In addition Normal Neonatal Human Dermal Fibroblast, NHDF, cells were cultured in Fibroblast Basal Medium (FBM®, Clonetics, Walkersville, USA) supplemented with hFGF-B, insulin, 5% FBS and gentamicin/amphotericin-B (FGM®-2 SingleQuots, Clonetics, Walkersville, USA).
# as §3, §4, §5
# [12] = system: cisplatin resistant ovarian cancer cell line A2780 cisR; experiment: MTS in vitro cytotoxicity, A2780 cisR; assay type: cell-based, human
# Experimental: as §2, §3, §4, §5
# HDAC1 = molecular target: T1, HDAC1 (Homo sapiens, UniProt Q13547); experiment: Cayman HDAC1 Inhibitor Screening Assay Kit (fluorescence); assay type: biochemical
# T1 construct: purchased Cayman Chemicals, Ann Arbor, USA
# T1 sequence (Q13547 whole entry): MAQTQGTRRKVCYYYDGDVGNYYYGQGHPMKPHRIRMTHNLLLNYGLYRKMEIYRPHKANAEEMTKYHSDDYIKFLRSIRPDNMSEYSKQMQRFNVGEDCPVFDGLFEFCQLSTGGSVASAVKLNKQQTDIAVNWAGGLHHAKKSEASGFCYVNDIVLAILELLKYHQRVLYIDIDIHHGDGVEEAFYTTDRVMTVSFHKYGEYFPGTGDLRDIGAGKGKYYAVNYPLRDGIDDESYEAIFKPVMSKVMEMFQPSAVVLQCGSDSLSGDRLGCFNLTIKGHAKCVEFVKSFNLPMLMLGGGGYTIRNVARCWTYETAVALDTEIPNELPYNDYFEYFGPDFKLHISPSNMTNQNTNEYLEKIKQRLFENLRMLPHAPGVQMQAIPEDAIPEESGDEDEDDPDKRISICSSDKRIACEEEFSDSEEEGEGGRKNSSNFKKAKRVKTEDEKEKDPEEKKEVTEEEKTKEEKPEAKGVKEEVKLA
# Experimental: The assay provides a fast two-step fluorescence-based method for measuring HDAC activity. Briefly, in the first step an acetylated lysine residue was incubated with HDAC1 and potential inhibitors. Deacetylation sensitises the substrate so that treatment with the HDAC developer in the second step releases a fluorescent product. The fluorescent reaction product was analysed using a plate reader with an excitation wavelengths of 350 nm and emission wavelengths of 460 nm.
structure (smiles),measurement,setting,value
[NH2][Pt]1([NH2])[O]C(=O)CC(=O)[O]1 [cis-[Pt(NH3)2(mal)]],DNA-bound Pt in SW480,[1],1.25 · 10^−15 moles of Pt/μg of DNA
same,IC50,"[2]; 72 hours, MTS, Table 1, read-out: IC50 values against A2780 P",16 ± 4.3 µM
same,Uptake of Pt complexes into A549,A549 (lung cancer cells),357.1 ± 47.1 pmol Pt/2 × 10^6 cell
same,IC50,[3],6.3 µM
same,IC50,cell line (CH1),2.5 ± 0.5 µM
same,DNA-bound Pt in CH1,[4],1.76 · 10^−15 moles of Pt/μg of DNA
same,IC50,[5],14.6 ± 2.5 µM
same,IC50,[6],44.5 ± 0.9 µM
same,IC50,[7],23.2 ± 1.5 µM
same,Uptake of Pt complexes into SW480,[8],127.35 ± 27.4 pmol Pt/2 × 10^6 cell
same,Uptake of Pt complexes into A2780 P,[9],220.95 ± 10.95 pmol Pt/2 × 10^6 cell
same,Uptake of Pt complexes into CH1,CH1 (cancer cells),282.6 ± 20.6 pmol Pt/2 × 10^6 cell
same,Uptake of Pt complexes into SKBR,[10],488.15 ± 38.4 pmol Pt/2 × 10^6 cell
same,IC50,"[11]; 72 hours, MTS, Table 1, read-out: IC50 values against NHDF",48 ± 2.2 µM
same,IC50,"[12]; 72 hours, MTS, Table 1, read-out: IC50 values against A2780cisR",81 ± 5.8 µM
O=C(CCCCCCC(=O)Nc1ccc(CC(C(=O)O)C(=O)O)cc1)NO [malSAHA],inhibition of HDAC1 (in words),HDAC1,inhibit HDAC1
same,IC50,HDAC1; at 200 μM,0.0595 µM
O=C(/C=C/c1ccc(S(=O)(=O)Nc2ccc(CC(C(=O)O)C(=O)O)cc2)cc1)NO [malBel],IC50,"[2]; 72 hours, MTS, Table 5, read-out: IC50 (μM) ± S.E.M. against A2780P",45.8 µM
same,IC50,"[11]; 72 hours, MTS, Table 5, read-out: IC50 (μM) ± S.E.M. against NHDF",28.9 µM
same,IC50,"[12]; 72 hours, MTS, Table 5, read-out: IC50 (μM) ± S.E.M. against A2780CisR",32.1 µM
"O=C(/C=C/c1cccc(S(=O)(=O)Nc2ccccc2)c1)NO [belinostat, reference compound]",IC50,"[2]; Homo sapiens, A2780, 72 h, read-out: IC50 (μM) ± S.E.M. against A2780P",< 1 µM
same,IC50,"[11]; Homo sapiens, NHDF, 72 h, read-out: IC50 (μM) ± S.E.M. against NHDF",3 ± 0.5 µM
same,IC50,"[12]; Homo sapiens, A2780cisR, 72 h, read-out: IC50 (μM) ± S.E.M. against A2780CisR",< 1 µM
